The values that follow come from patent publication US20190117616A1, “METHOD FOR REGULATING KDM4A, KDM4B, AND KDM4C ACTIVITY” (National Tsing Hua University, priority 2017, published 2019).

In data set [1] the test system is C4-2B xenografts. Kind of data set: C4-2B xenograft tumor growth in nude mice. The format is in vivo. The settings on record: C4-2B xenograft model.
Data set [2] concerns C4-2B xenografts. Nature of the data set: Ki-67 and CD31 immunohistochemistry of xenograft tumor sections. The settings on record: FIG. 7B. It is filed as in vivo, nude mice. On the procedure:
FIG. 7B: Ki-67 and CD31 immunohistochemistry staining of the tumor sections isolated from the xenografts.
The endothelial cell-specific marker CD31 in xenografts was also determined.

The target of the next data set is T1, KDM4B (Homo sapiens, UniProt O94953).
T1 sequence (O94953 1-1096): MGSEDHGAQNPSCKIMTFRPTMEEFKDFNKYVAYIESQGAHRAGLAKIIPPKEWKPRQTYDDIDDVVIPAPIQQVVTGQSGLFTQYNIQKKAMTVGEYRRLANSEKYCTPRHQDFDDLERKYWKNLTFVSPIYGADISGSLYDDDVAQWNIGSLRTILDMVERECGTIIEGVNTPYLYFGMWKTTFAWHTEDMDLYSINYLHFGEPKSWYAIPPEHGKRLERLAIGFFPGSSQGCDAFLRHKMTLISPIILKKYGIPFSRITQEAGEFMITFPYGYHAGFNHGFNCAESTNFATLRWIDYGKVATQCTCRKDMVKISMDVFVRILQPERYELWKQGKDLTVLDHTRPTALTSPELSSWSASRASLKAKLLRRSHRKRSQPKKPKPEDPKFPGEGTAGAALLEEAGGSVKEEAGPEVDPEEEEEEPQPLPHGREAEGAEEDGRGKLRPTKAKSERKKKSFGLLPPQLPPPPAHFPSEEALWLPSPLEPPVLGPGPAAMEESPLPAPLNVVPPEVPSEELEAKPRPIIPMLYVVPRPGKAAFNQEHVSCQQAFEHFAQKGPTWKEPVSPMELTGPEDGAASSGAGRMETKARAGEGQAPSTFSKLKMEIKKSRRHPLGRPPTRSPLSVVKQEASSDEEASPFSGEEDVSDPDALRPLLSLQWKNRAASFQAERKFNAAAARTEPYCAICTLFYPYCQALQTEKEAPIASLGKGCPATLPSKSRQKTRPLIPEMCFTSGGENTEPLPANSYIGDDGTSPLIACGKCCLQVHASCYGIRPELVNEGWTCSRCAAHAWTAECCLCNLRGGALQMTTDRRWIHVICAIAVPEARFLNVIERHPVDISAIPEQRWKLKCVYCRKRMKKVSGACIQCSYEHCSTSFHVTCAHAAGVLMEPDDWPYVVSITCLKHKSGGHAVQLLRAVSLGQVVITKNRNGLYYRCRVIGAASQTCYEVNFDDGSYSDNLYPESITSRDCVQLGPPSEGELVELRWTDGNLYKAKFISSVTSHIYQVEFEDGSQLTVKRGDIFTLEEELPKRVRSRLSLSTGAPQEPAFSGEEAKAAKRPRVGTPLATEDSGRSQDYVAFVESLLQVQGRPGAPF
Nature of the data set: KDM4B enzymatic inhibition (residual activity, IC50, kinetics). The following applies: for Inhibitory effects of Myricetin analogues against KDM4B activity: Table 1 (not given), 100 μM compounds. It is filed as biochemical.

Data set [3] concerns the target T2, KDM4C (Homo sapiens, UniProt Q9H3R0).
T2 sequence (Q9H3R0 1-1056): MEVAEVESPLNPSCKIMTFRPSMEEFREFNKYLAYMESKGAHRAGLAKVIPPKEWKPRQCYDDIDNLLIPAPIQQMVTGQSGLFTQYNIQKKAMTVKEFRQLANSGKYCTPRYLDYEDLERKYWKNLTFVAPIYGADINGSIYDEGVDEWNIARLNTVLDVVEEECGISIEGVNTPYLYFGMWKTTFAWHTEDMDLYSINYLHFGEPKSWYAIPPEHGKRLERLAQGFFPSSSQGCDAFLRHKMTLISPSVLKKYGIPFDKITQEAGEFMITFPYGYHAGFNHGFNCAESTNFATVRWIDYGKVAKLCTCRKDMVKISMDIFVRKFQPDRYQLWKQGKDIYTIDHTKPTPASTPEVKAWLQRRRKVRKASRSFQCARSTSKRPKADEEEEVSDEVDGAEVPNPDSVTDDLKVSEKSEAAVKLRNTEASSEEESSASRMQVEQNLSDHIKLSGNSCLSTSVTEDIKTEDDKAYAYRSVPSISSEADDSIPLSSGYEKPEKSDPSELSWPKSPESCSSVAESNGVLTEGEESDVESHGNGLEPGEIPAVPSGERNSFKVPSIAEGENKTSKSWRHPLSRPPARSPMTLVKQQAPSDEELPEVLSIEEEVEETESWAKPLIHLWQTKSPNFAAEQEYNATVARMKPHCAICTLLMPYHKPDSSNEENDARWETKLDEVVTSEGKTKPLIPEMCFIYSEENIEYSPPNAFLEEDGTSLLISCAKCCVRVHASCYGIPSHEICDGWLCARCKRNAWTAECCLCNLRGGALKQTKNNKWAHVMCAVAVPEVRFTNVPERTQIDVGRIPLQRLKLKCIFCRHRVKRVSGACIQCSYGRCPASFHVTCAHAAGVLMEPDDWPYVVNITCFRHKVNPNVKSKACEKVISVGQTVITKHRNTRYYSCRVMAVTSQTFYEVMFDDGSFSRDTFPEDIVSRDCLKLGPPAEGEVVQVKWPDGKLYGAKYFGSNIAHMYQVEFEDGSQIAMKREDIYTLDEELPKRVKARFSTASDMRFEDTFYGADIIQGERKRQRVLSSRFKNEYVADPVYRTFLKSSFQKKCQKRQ
Nature of the data set: H3 demethylation by bacteria-expressed KDM4C, western blot. It is filed as biochemical. The following applies: 100 μM inhibitor, 10 μM enzyme, 5 μM H3, 37° C., 30 min.

The subject of another data set is LNCaP cells. Kind of data set: MTT cell growth assay, LNCaP. The format is cell-based. The settings on record: different concentrations over 4 days. An excerpt:
(§1) Whether Myricetin blocked cell growth of AR+ cells was next evaluated.
In general terms: Formazan colour is commonly taken as a measure of viable cells.

Data set [4] deals with C4-2B cells. Kind of data set: MTT cell proliferation assay, C4-2B. The following applies: different concentrations over 4 days. It is filed as cell-based.
From the text: as §1

A further data set has as its system PZ-HPV-7 cells. Kind of data set: MTT assay, immortalized normal PZ-HPV-7. The format is cell-based. The settings on record: different concentrations over 4 days.
From the text: as §1

For data set [5], the system named is H3K9me3/H3K36me3 in C4-2B cells. Kind of data set: H3K9me3 and H3K36me3 levels in treated C4-2B cells, western blot. It is filed as cell-based. The settings on record: treated for two days, cell lysates.
From the text: FIG. 5B: H3K9me3 and H3K36me3 levels in Myricetin-treated C4-2B cells for two days. The H3K9me3 and H3K36me3 signals are detected in cell lysates by western blot analysis.
as §1
In general terms: In western blotting, separated proteins are transferred to a membrane and probed.

The target in data set [6] is T2, KDM4C. The settings on record: toward α-ketoglutarate, FIG. 2A.
Data set [7] relates to C4-2B cells.
Data set [8] deals with C4-2B cells. Kind of data set: Cell viability of C4-2B, PLGA-Myricetin versus free Myricetin. The settings on record: read-out: IC50, cell viability (cytotoxicity) of C4-2B cells.
For another data set, the target named is T3, JMJD2E/KDM4E (Homo sapiens, UniProt B2RXH2).
T3 sequence (B2RXH2 1-506): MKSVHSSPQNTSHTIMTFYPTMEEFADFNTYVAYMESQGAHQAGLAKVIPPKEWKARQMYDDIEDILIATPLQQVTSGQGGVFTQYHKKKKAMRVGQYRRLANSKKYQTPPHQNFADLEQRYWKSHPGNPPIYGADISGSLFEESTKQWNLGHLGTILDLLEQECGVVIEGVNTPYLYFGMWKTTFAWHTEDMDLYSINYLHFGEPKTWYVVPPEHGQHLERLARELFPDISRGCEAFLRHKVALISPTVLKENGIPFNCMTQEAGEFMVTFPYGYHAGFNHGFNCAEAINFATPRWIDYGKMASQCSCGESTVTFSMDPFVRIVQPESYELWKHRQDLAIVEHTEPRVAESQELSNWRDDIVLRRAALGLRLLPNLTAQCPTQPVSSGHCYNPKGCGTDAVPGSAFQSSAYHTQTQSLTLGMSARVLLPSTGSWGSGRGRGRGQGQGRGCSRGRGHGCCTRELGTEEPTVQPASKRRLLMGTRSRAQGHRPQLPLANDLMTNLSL
The settings on record: in vitro, literature; cited from earlier work.

The conditions of data set [9]: literature; cited from earlier work.
In another data set the test system is herpes virus. The settings on record: literature; cited from earlier work.

As a reminder, the IC50 is the concentration that inhibits the measured activity by half.

Each structure is given as a SMILES string.

For `CNC(=O)c1ccc(N2C(=S)N(c3ccc(C#N)c(C(F)(F)F)c3)C(=O)C2(C)C)cc1F` [enzalutamide], in the data set with C4-2B xenografts [1], the “Antitumor activity compared with the vehicle control group” value was “significant antitumor activity”. In the data set with C4-2B xenografts [2], the “Endothelial cell-specific marker CD31 in xenografts” value is “significantly higher level of CD31 was seen in the vehicle group” and the “Expression of proliferation marker Ki-67 in xenografts” value is “significantly lower expression”.

On to `COc1cc(-c2oc3cc(O)cc(O)c3c(=O)c2O)ccc1O` [Isorhamnetin], for which, on KDM4B, the “Inhibitory effects of Myricetin analogues against KDM4B activity” value is reported as “significant inhibitory effects”.

Consider `O=c1c(O)c(-c2ccc(O)cc2)oc2cc(O)cc(O)c12` [Kaempferol], for which the “Inhibitory effects of Myricetin analogues against KDM4B activity” value on KDM4B is “significant inhibitory effects”.

Regarding `O=c1c(O)c(-c2ccc(O)c(O)c2)oc2cc(O)cc(O)c12` [Quercetin], the “Inhibitory effects of Myricetin analogues against KDM4B activity” value on KDM4B was “significant inhibitory effects”.

The compound `O=c1c(O)c(-c2cc(O)c(O)c(O)c2)oc2cc(O)cc(O)c12` [Myricetin] came in with an IC50 against KDM4B of 1.3 µM. Further, the “Enzymatic inhibitory kinetics, mode (KDM4B)” value at KDM4B (toward α-ketoglutarate, FIG. 2A) is “competitive inhibition mode”. In addition, on KDM4C [3], the “Demethylation of H3K9me3 by KDM4C” value is “significantly reduced such an activity”. For the same compound, the “Cell growth of LNCaP” value in the data set with LNCaP cells is “significantly reduced level of cell growth”. Also, in the data set with C4-2B cells [4], the “Cell proliferation of C4-2B” value is listed as “blocked”. In the data set with PZ-HPV-7 cells, the “Effect on immortalized normal PZ-HPV-7 line” value is given as “essentially no effect”. In data set [5], the “H3K9me3 level in C4-2B cells” value was “dose-dependent increased level” and the “H3K36me3 signal in C4-2B cells” value is on record as “relatively comparable signal”. The “Antitumor activity compared with the vehicle control group” value in the data set with C4-2B xenografts [1] is given as “significant antitumor activity”. At KDM4C [6], the “Enzymatic inhibitory kinetics, mode (KDM4C)” value was “competitive mode”. Moreover, the “Cytotoxic effect alone, compared with enzalutamide alone” value in the data set on C4-2B cells [7] was “better cytotoxic effect”. Further, in the data set on C4-2B cells [8], the IC50 was determined as 38.3 µM.

In the case of `O=c1c(O)c(-c2ccc(O)c(O)c2)oc2c(O[C@@H]3O[C@H](CO)[C@@H](O)[C@H](O)[C@H]3O)c(O)cc(O)c12` [Gossypin], the “Inhibitory effects of Myricetin analogues against KDM4B activity” value at KDM4B is reported as “significant inhibitory effects”.

As for `CN(C)CCCNC(=O)c1ccc(-c2cc(O)c3ncccc3c2)cc1` [ML324], the “Inhibitory activity toward JMJD2E/KDM4E” value at JMJD2E/KDM4E is reported as “submicromolar”. Moreover, in data set [9], the Cell permeability result is reported as “good” and the “In vitro ADME properties” value is “good”. Also, the “KDM4A-dependent herpes virus-mediated replication in infected cells” value in the data set on herpes virus is on record as “blocked”.
